Format in all cases: cell-based
For experiment [1], the target named is T1, hGIPR (Homo sapiens, UniProt P48546).
T1 sequence (P48546 22-466): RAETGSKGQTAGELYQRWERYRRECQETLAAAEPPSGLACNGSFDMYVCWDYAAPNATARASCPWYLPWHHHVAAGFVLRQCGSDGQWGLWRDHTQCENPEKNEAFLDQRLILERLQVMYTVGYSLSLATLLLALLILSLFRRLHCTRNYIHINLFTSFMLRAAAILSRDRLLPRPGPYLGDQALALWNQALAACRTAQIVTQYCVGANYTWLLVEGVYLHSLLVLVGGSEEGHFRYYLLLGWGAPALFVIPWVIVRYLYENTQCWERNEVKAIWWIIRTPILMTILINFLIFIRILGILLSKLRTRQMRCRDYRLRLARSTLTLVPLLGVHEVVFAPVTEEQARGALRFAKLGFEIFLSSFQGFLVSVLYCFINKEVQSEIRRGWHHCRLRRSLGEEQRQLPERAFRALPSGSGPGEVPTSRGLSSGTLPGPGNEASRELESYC
The experiment can be described thus: Functional cAMP activity in the presence of 1% HSA. The following applies: read-out: cAMP Rel EC50, hGIPR.

The target of experiment [2] is T2, hGLP-1R (Homo sapiens, UniProt P43220). The experiment can be described thus: Functional cAMP activity in the presence of 1% HSA. The settings on record: read-out: cAMP Rel EC50, hGLP-1R.
The target of the next experiment is human GcgR (Homo sapiens, UniProt P47871). The experiment can be described thus: Functional cAMP activity in the presence of 1% HSA. The settings on record: read-out: cAMP Rel EC50, hGcgR.
The target of experiment [3] is T1, hGIPR. Briefly: Functional cAMP activation in the presence of 0.1% casein (no HSA). The settings on record: in the presence of 0.1% casein (no HSA); geometric mean; read-out: Relative cAMP EC50, hGIPR.
Experiment [4] concerns the target T2, hGLP-1R. The description is as above. The settings on record: in the presence of 0.1% casein (no HSA); geometric mean; read-out: Relative cAMP EC50, hGLP-1R.
In another experiment the target is hGcgR (Homo sapiens, UniProt P47871). The experiment is described as above. The following applies: in the presence of 0.1% casein (no HSA); geometric mean; read-out: Relative cAMP EC50, hGcgR.

EC50 data for eight compounds are collected here from patent US20240270821A1, “GIP/GLP1/GCG TRI-RECEPTOR AGONISTS AND USES THEREOF” (priority 2023, published 2024).

Starred links: 1 amine or outer side, 2 acyl side, 3 side chain; linkers in the order of their positions; H or OH if unused. Non-standard residues stand in square brackets, D forms with d. Residues, ends and D or L forms follow the SMILES beside them. Groups on a side chain read outwards from the residue. *: point of attachment. C20 diacid = O=C(O)CCCCCCCCCCCCCCCCCCC(=O)*; C18 diacid = O=C(O)CCCCCCCCCCCCCCCCC(=O)*; αMePhe(2-F) = C[C@](N)(Cc1ccccc1F)C(=O)O; γGlu = O=C(O)[C@H](CCC(=O)[*:2])N[*:1]; αMe4Pal = C[C@](N)(Cc1ccncc1)C(=O)O; αMeY = C[C@](N)(Cc1ccc(O)cc1)C(=O)O; 4Pal = N[C@@H](Cc1ccncc1)C(=O)O; αMeL = CC(C)C[C@](C)(N)C(=O)O; Orn = NCCC[C@H](N)C(=O)O; AEEA = NCCOCCOCC(=O)O; Aib = CC(C)(N)C(=O)O

In general, EC50 refers to the concentration needed to bring the measured effect to its halfway point.
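For Relative cAMP EC50, hGIPR in this document: intracellular cAMP rise after 30 min at 37 °C read by HTRF against a standard curve, scaled between buffer alone (0%) and top control ligand concentration (100%), four-parameter fit.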
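For Relative cAMP EC50, hGLP-1R in this document: intracellular cAMP rise after 30 min at 37 °C read by HTRF, normalized between buffer only (0%) and maximal control ligand (100%), four-parameter variable-slope fit.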
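For Relative cAMP EC50, hGcgR in this document: intracellular cAMP rise after 30 min at 37 °C, read by HTRF against a cAMP standard curve, scaled from buffer only (0%) to maximal control ligand response (100%).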

T2 sequence (P43220 24-463): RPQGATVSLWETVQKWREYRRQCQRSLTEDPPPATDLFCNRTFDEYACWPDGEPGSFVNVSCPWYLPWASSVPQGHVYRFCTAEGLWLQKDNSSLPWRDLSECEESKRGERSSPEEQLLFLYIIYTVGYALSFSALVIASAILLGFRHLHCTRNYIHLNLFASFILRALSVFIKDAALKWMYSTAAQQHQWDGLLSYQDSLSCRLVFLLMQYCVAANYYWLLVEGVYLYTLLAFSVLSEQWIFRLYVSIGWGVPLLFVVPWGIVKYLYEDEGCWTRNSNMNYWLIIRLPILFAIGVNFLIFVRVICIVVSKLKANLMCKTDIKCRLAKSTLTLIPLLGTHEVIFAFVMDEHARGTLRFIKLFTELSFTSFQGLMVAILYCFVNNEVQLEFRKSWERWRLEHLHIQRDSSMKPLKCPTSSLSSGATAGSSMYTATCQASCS
Chain of hGcgR (P47871 26-477): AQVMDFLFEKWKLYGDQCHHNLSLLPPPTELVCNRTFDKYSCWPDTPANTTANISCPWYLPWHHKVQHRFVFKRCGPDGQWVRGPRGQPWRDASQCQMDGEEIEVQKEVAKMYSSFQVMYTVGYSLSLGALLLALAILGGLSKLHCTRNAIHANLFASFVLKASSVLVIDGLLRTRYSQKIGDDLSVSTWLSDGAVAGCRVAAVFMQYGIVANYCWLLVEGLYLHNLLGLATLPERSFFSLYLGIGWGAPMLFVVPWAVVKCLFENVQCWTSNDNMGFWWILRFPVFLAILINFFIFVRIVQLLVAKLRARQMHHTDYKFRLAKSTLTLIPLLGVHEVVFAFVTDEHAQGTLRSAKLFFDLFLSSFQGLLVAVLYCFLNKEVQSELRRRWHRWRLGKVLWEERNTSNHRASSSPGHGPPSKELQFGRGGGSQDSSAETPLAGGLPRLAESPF
Chain of human GcgR (P47871 26-477): as above

In the case of “H-Y[Aib]QGTFTSDFSK[αMeL]LDKK([AEEA-γGlu-C20 diacid])AQ[Aib]AFIEYLLAGGPSSGAPPPSGS-NH2 [Example 14]”, the EC50 on hGIPR [1] turned out to be 34.7 nM; on hGLP-1R [2], 232 nM; on human GcgR it was 1420 nM; on hGIPR [3], 0.17 nM; at hGLP-1R [4] it was 1.67 nM; on hGcgR, 7.23 nM.

Turning to “H-Y[Aib]QGTFTSD[4Pal]S[Orn][αMeL]LDKK([γGlu-γGlu-γGlu-C18 diacid])AQ[αMe4Pal]AFIEYLIE[Aib]GPSSGAPPPSGS-NH2 [Example 866]”, the EC50 on hGIPR [1] was determined as 23.8 nM; on hGLP-1R [2], 483 nM; on human GcgR, 669 nM; on hGIPR [3], 0.148 nM; at hGLP-1R [4], 4.01 nM; at hGcgR, 4.48 nM.

For the compound “H-Y[Aib]QGTFTSDFSK[αMeL]LDKK([AEEA-γGlu-C20 diacid])AQ[Aib]AFIEYLLAGGPSSGEPPPSGG-NH2 [Example 6]”, the EC50 stood at 46.6 nM on hGIPR [1]; 446 nM on hGLP-1R [2]; 1380 nM on human GcgR; 0.232 nM at hGIPR [3]; 1.95 nM on hGLP-1R [4]; 6.89 nM on hGcgR.

For the compound `CC[C@H](C)[C@H](NC(=O)[C@H](Cc1ccccc1)NC(=O)[C@H](CCCN)NC(=O)C(C)(C)NC(=O)[C@H](CCC(N)=O)NC(=O)[C@H](C)NC(=O)[C@H](CCCCNC(=O)CC[C@H](NC(=O)CC[C@H](NC(=O)CCCCCCCCCCCCCCCCC(=O)O)C(=O)O)C(=O)O)NC(=O)[C@H](CCCN)NC(=O)[C@H](CC(=O)O)NC(=O)[C@H](CC(C)C)NC(=O)[C@](C)(CC(C)C)NC(=O)[C@@H](NC(=O)[C@H](CO)NC(=O)[C@H](Cc1ccncc1)NC(=O)[C@H](CC(=O)O)NC(=O)[C@H](CO)NC(=O)[C@@H](NC(=O)[C@](C)(Cc1ccccc1F)NC(=O)[C@@H](NC(=O)CNC(=O)[C@H](CCC(N)=O)NC(=O)C(C)(C)NC(=O)[C@@H](N)Cc1ccc(O)cc1)[C@@H](C)O)[C@@H](C)O)[C@@H](C)CC)C(=O)N[C@H](CCC(=O)O)C(=O)N[C@@](C)(Cc1ccc(O)cc1)C(=O)N[C@@H](CC(C)C)C(=O)N[C@@H](CC(C)C)C(=O)N[C@@H](CCC(=O)O)C(=O)NCC(=O)NCC(=O)N1CCC[C@H]1C(=O)N[C@@H](CO)C(=O)N[C@@H](CO)C(=O)NCC(=O)N[C@@H](CCC(=O)O)C(=O)N1CCC[C@H]1C(=O)N1CCC[C@H]1C(=O)N1CCC[C@H]1C(=O)N[C@@H](CCC(=O)O)C(N)=O` [Example 372] (H-Y[Aib]QGT[αMePhe(2-F)]TSD[4Pal]SI[αMeL]LD[Orn]K([γGlu-γGlu-C18 diacid])AQ[Aib][Orn]FI[dE][αMeY]LLEGGPSSGEPPPE-NH2), the EC50 is 2.63 nM at hGIPR [1]; 53.1 nM at hGLP-1R [2]; 468 nM at human GcgR; 0.0161 nM on hGIPR [3]; 0.333 nM at hGLP-1R [4]; 7.54 nM at hGcgR.

Regarding `CC[C@H](C)[C@H](NC(=O)[C@H](CC(C)C)NC(=O)[C@H](Cc1ccc(O)cc1)NC(=O)[C@H](CCC(=O)O)NC(=O)[C@@H](NC(=O)[C@H](Cc1ccccc1)NC(=O)[C@H](C)NC(=O)[C@](C)(Cc1ccncc1)NC(=O)[C@H](CCC(N)=O)NC(=O)[C@H](C)NC(=O)[C@H](CCCCNC(=O)COCCOCCNC(=O)CC[C@H](NC(=O)CCCCCCCCCCCCCCCCC(=O)O)C(=O)O)NC(=O)[C@H](CCCCN)NC(=O)[C@H](CC(=O)O)NC(=O)[C@H](CC(C)C)NC(=O)[C@](C)(CC(C)C)NC(=O)[C@H](CCCN)NC(=O)[C@H](CO)NC(=O)[C@H](Cc1ccncc1)NC(=O)[C@H](CC(=O)O)NC(=O)[C@H](CO)NC(=O)[C@@H](NC(=O)[C@H](Cc1ccccc1)NC(=O)[C@@H](NC(=O)CNC(=O)[C@H](CCC(N)=O)NC(=O)C(C)(C)NC(=O)[C@@H](N)Cc1ccc(O)cc1)[C@@H](C)O)[C@@H](C)O)[C@@H](C)CC)C(=O)N[C@@H](CCC(=O)O)C(=O)NCC(=O)NCC(=O)N[C@@H](CCC(=O)O)C(=O)N[C@@H](CO)C(=O)N[C@@H](CO)C(=O)NCC(=O)N[C@@H](C)C(=O)N1CCC[C@H]1C(=O)N1CCC[C@H]1C(=O)N1CCC[C@H]1C(=O)N[C@@H](CO)C(=O)NCC(=O)N[C@@H](CO)C(N)=O` [Example 791], the EC50 on hGIPR [1] stood at 143 nM; at hGLP-1R [2], 980 nM; at human GcgR, 456 nM; on hGIPR [3], 0.979 nM; on hGcgR, 2.36 nM.

Consider `CC[C@H](C)[C@H](NC(=O)[C@H](Cc1ccccc1)NC(=O)[C@H](CCC(N)=O)NC(=O)C(C)(C)NC(=O)[C@H](CCC(N)=O)NC(=O)[C@H](C)NC(=O)[C@H](CCCCNC(=O)COCCOCCNC(=O)CC[C@H](NC(=O)CCCCCCCCCCCCCCCCCCC(=O)O)C(=O)O)NC(=O)[C@H](CCCCN)NC(=O)[C@H](CC(=O)O)NC(=O)[C@H](CC(C)C)NC(=O)[C@](C)(CC(C)C)NC(=O)[C@H](CCCCN)NC(=O)[C@H](CO)NC(=O)[C@H](Cc1ccccc1)NC(=O)[C@H](CC(=O)O)NC(=O)[C@H](CO)NC(=O)[C@@H](NC(=O)[C@H](Cc1ccccc1)NC(=O)[C@@H](NC(=O)CNC(=O)[C@H](CCC(N)=O)NC(=O)C(C)(C)NC(=O)[C@@H](N)Cc1ccc(O)cc1)[C@@H](C)O)[C@@H](C)O)C(=O)N[C@@H](CCC(=O)O)C(=O)N[C@@H](Cc1c[nH]c2ccccc12)C(=O)N[C@@H](CC(C)C)C(=O)N[C@@H](CC(C)C)C(=O)N[C@@H](CCC(=O)O)C(=O)NCC(=O)NCC(=O)N1CCC[C@H]1C(=O)N[C@@H](CO)C(=O)N[C@@H](CO)C(=O)NCC(=O)N[C@@H](C)C(=O)N1CCC[C@H]1C(=O)N1CCC[C@H]1C(=O)N1CCC[C@H]1C(=O)N[C@@H](CO)C(=O)N[C@@H](CCC(=O)O)C(=O)NCC(N)=O` [Example 38], for which the concentration giving a half-maximal response (EC50) at hGIPR [1] turned out to be 102 nM; on hGLP-1R [2], 884 nM; at human GcgR, 2770 nM; on hGIPR [3], 0.304 nM; at hGcgR it was 9.5 nM.

Regarding `CC[C@H](C)[C@H](NC(=O)[C@H](Cc1ccccc1)NC(=O)[C@H](C)NC(=O)C(C)(C)NC(=O)[C@H](CCC(N)=O)NC(=O)[C@H](C)NC(=O)[C@H](CCCCNC(=O)COCCOCCNC(=O)CC[C@H](NC(=O)CCCCCCCCCCCCCCCCC(=O)O)C(=O)O)NC(=O)[C@H](CCCCN)NC(=O)[C@H](CC(=O)O)NC(=O)[C@H](CC(C)C)NC(=O)[C@](C)(CC(C)C)NC(=O)[C@H](CCCN)NC(=O)[C@H](CO)NC(=O)[C@H](Cc1ccccc1)NC(=O)[C@H](CC(=O)O)NC(=O)[C@H](CO)NC(=O)[C@@H](NC(=O)[C@H](Cc1ccccc1)NC(=O)[C@@H](NC(=O)CNC(=O)[C@H](CCC(N)=O)NC(=O)C(C)(C)NC(=O)[C@@H](N)Cc1ccc(O)cc1)[C@@H](C)O)[C@@H](C)O)C(=O)N[C@@H](CCC(=O)O)C(=O)N[C@@H](Cc1ccc(O)cc1)C(=O)N[C@@H](CC(C)C)C(=O)N[C@@H](CC(C)C)C(=O)N[C@@H](CCC(=O)O)C(=O)NC(C)(C)C(=O)NCC(=O)N[C@@H](CCC(=O)O)C(=O)N[C@@H](CO)C(=O)N[C@@H](CO)C(=O)NCC(=O)N[C@@H](C)C(=O)N1CCC[C@H]1C(=O)N1CCC[C@H]1C(=O)N1CCC[C@H]1C(=O)N[C@@H](CO)C(=O)NCC(=O)N[C@@H](CCC(=O)O)C(N)=O` [Example 246], the EC50 at hGLP-1R [2] turned out to be 845 nM; at human GcgR it was 639 nM; at hGIPR [3] it was 0.106 nM; on hGLP-1R [4], 3.91 nM; on hGcgR, 2.38 nM.

As for `CC[C@H](C)[C@H](NC(=O)[C@H](Cc1ccccc1)NC(=O)[C@H](C)NC(=O)[C@](C)(Cc1ccncc1)NC(=O)[C@H](CCC(N)=O)NC(=O)[C@H](C)NC(=O)[C@H](CCCCNC(=O)CC[C@H](NC(=O)CC[C@H](NC(=O)CCCCCCCCCCCCCCCCC(=O)O)C(=O)O)C(=O)O)NC(=O)[C@H](CCCN)NC(=O)[C@H](CC(=O)O)NC(=O)[C@H](CC(C)C)NC(=O)[C@](C)(CC(C)C)NC(=O)[C@H](CCC(N)=O)NC(=O)[C@H](CO)NC(=O)[C@H](Cc1ccncc1)NC(=O)[C@H](CC(=O)O)NC(=O)[C@H](CO)NC(=O)[C@@H](NC(=O)[C@H](Cc1ccccc1)NC(=O)[C@@H](NC(=O)CNC(=O)[C@H](CCC(N)=O)NC(=O)C(C)(C)NC(=O)[C@@H](N)Cc1ccc(O)cc1)[C@@H](C)O)[C@@H](C)O)C(=O)N[C@@H](CCC(=O)O)C(=O)N[C@@H](Cc1ccc(O)cc1)C(=O)N[C@@H](CC(C)C)C(=O)N[C@H](C(=O)N[C@@H](CCC(=O)O)C(=O)N[C@H](C)C(=O)NCC(=O)N1CCC[C@H]1C(=O)N[C@@H](CO)C(=O)N[C@@H](CO)C(=O)NCC(=O)N[C@@H](C)C(=O)N1CCC[C@H]1C(=O)N1CCC[C@H]1C(=O)N1CCC[C@H]1C(=O)N[C@@H](CCC(=O)O)C(=O)NCC(=O)N[C@@H](CO)C(N)=O)[C@@H](C)CC` [Example 1021], the EC50 came to 174 nM at hGLP-1R [2]; 588 nM on human GcgR; 0.22 nM at hGIPR [3]; 1.3 nM at hGLP-1R [4]; 4.39 nM on hGcgR.
